We go through 2 molecules from patent US20160120915A1, “METHODS FOR MANIPULATING IMMUNE RESPONSES BY ALTERING MICROBIOTA” (NEW YORK UNIVERSITY, priority 2013, published 2016).

For one assay, the system named is ileum. Kind of assay: TRANSTAT: ileal expression by qPCR in 18-week microbiota donor mice. Particulars: 18-week STAT-donor mice vs control donors. The class given is in vivo, C57BL6J mice. The protocol: (§1) Total RNA was extracted from mouse tissues using the RNeasy Mini Kit (Qiagen), according to the manufacturer's instructions. Total RNA was reverse transcribed to cDNA using the Verso™ cDNA Synthesis Kit (Thermo Scientific). To generate standards for expression analysis of each target gene, the cDNA region of interest was PCR-amplified and the PCR product was cloned into pGEM-T easy (Promega). qPCR was performed with LightCycler 480 SYBR Green I Master mix (Roche) and run in a LightCycler 480 system (Roche). Target mRNA was normalized to GAPDH mRNA as an internal control in each sample.
C57BL/6J (Jackson Labs, Bar Harbor, Me.) mice either received no antibiotics (control) or continuous STAT penicillin. Mice were weaned at 4 weeks onto normal chow (13.2% fat, 5053 PicoLab Rodent Diet 20, LabDiet, Brentwood, Mo.), then changed to a high fat diet (45% kcal from fat, D12451, Research Diets, New Brunswick, N.J.) at 6 weeks of life. At 18 weeks of age, from each group (Control, n=9; STAT, n=8), the three animals with weight at or closest to the median were selected as cecal content donors. Donor mice were humanely euthanized, and the proximal ⅓ of the cecum was aseptically removed and after a series of processing steps, either the pooled Control or STAT microbiota suspensions were placed in the stomachs of the germ-free recipients (Control, n=7 recipients; STAT, n=8) by oral gavage. Recipients were chosen randomly, and the inoculum alternated between control and STAT recipients. […] The microbiota-recipient mice were housed in autoclaved cages, under specific pathogen-free conditions, and fed an irradiated high fat diet (45% kcal from fat, D12451, Research Diets, New Brunswick, N.J.), and followed for the next 35 days until sacrifice. Fecal pellets were collected serially from the time of transfer.
Mice were fed normal chow, then switched to high fat diet at 6 weeks of age. At 18 weeks, cecal contents were collected from 3 control and 3 STAT mice, based on their median weight, pooled, and transferred to 3-4 week old germ-free Swiss Webster mice by oral gavage. Every attempt was made to maintain viability of the microbiota by protecting the microbiota from oxygen and minimizing time between microbiota collection and transfer. Microbiota recipient mice were monitored for 5 weeks, then ileal samples were collected to assess immunity by flow cytometry and qPCR. Ileal gene expression was also measured by microarray and Nanostring Immunology Panel (FIG. 13).
Expression levels were measured by qPCR and normalized by GAPDH expression.

Assay [1] concerns SAA genes in terminal ileum. Kind of assay: NOD: SAA 1, 2, 3 gene expression in terminal ileum by qPCR. The class given is in vivo. Particulars: 6-week old NOD male mice, qPCR normalized to 18S rRNA, p<0.05. The protocol: (§2) The distal ileum (1 cm) without Peyer's Patches was collected from each mouse for RNA extraction and kept in RNAlater (Ambion) overnight at 4° C. Samples were stored at −80° C. until RNA extraction was performed.
Total RNA was extracted from mouse tissues using the RNeasy Mini Kit with on-column DNase treatment to remove contaminating gDNA (Qiagen), according to the manufacturer's instructions. 1 μg of total RNA was reverse transcribed to cDNA using Super Script II (Applied Biosystems) according to the manufacturer's instructions. To generate standards for expression analysis of each target gene, the cDNA region of interest was PCR-amplified and the product cloned into pGEM-T easy (Promega). qPCR was performed with Power SYBR Green PCR Master mix (Roche) and run in a LightCycler 480 system (Roche). Target mRNA was normalized to 18S rRNA as an internal control in each sample.
RNA was extracted from the terminal ileum of the 6-week old NOD mice. […] RNA was reverse transcribed into cDNA and then qPCR was performed for SAA1, 2, or 3 using an absolute quantitation method. Gene expression data were normalized to 18S rRNA expression. […] The results for this experiment show consistent decreases in expression of the SAA genes in the ileum, detected by two independent methods (microarray and qPCR). […]

Assay [2] concerns terminal ileum. Kind of assay: PAT: ileal expression by qPCR in 6-week mice. It is filed as in vivo, C57BL/6 mice. The following applies: 6-week male mice, 3 pulses, vs control. The protocol: as §1
C57BL/6 mice were fed a standard diet after weaning, and exposed to 3 pulses of therapeutic dose antibiotics (Amoxicillin or Tylosin), or no antibiotics, via their drinking water, all before 6 weeks of age. Mice were sacrificed at 6 weeks of age.
as §2
Panel A: Mice were exposed to 3 pulses of antibiotics (Amoxicillin or Tylosin), or no antibiotics, via breast milk or drinking water at the indicated time points. Panel B: Male mice, including 5 Control, 4 Amoxicillin, and 6 Tylosin, were fed a normal diet. They were sacrificed at 6 weeks of age and the terminal[1 cm] ileum without Peyer's Patches [TI-] was collected.
Ileal expression of T-bet and IFN-γ [Th1], GATA3 and IL-4 [Th2], Foxp3, and TGFβ1 [Treg], and RORγt, IL-17A, and IL-17F [Th17] (Control n=5, Amoxicillin n=4, Tylosin n=6) was quantitated with qPCR and normalized by GAPDH expression. Expression of T-bet and IFNγ [Th1] (p<0.05) and IL-17A and IL-17F [Th17] […] Foxp3 and RORγt were lower in Tylosin than control. This example extends the earlier observation that continuous antibiotics affect ileal immune cell populations and effectors by showing that pulses are sufficient to produce similar effects.

Assay [3] concerns terminal ileum. Nature of the assay: PAT: ileal gene expression profiling by whole genome microarray, 6-week mice. The class given is in vivo, C57BL/6 mice. The following applies: 6-week PAT vs Control, T-test p<0.05 and fold change ≧1.2 or ≦0.8. As to the method: Ileal gene expression profiling of STAT, PAT, and control animal groups, was performed using the Affymetrix Genechip system (Affymetrix). Total RNA quality and quantity were determined using the Agilent 2100 Bioanalyser and Nanodrop ND-1000. Total RNA (100 ng) was used to prepare cDNA following the Affymetrix […] Express Kit labelling protocol (Affymetrix). Standardized array processing procedures recommended by Affymetrix were performed, including hybridization, fluidics processing and scanning of the Affymetrix MG-430 2.0 arrays. GeneSpring GX11 software (Agilent Technologies) was used to normalize the raw data (Affymetrix CEL files) by Robust Multichip Average algorithm (RMA).
1127 and 3065 reproducibly regulated genes were identified from ˜45,000 genes of the mouse genome by T-test (p<0.05) and fold change (≧1.2 or ≦0.8) in 6-week PAT (Panel A; Control vs Amoxicillin and Panel B; Control vs Tylosin), respectively (FIG. 22). DAVID analysis was performed using the regulated genes, and Gene Set Enrichment analysis (GSEA) was performed using whole gene data.
(C, n=3), amoxicillin (A, n=3), and tylosin treated mice (T, n=3).

Structures can show the parent of a compound that is named as a salt.

For `CC1(C)S[C@@H]2[C@H](NC(=O)COc3ccccc3)C(=O)N2[C@H]1C(=O)[O-].[K+]` [STAT, penicillin VK], in the assay with ileum, the “ileal expression of IL-17A” value was “significantly down-regulated”, the “ileal expression of IL-17F” value is reported as “downward trend”, the “ileal expression of RORγt” value is “downward trend” and the “ileal expression of Reg3γ” value is on record as “significantly down-regulated”. Moreover, the “ileal expression of defensin β1” value in the assay with ileum was “significantly down-regulated”.

For `CC[C@H]1OC(=O)C[C@@H](O)[C@H](C)[C@@H](O[C@@H]2O[C@H](C)[C@@H](O[C@H]3C[C@@](C)(O)[C@@H](O)[C@H](C)O3)[C@H](N(C)C)[C@H]2O)[C@@H](CC=O)C[C@@H](C)C(=O)/C=C/C(C)=C/[C@@H]1CO[C@@H]1O[C@H](C)[C@@H](O)[C@@H](OC)[C@H]1OC` [Tylosin, Tylosin tartrate], the “SAA gene expression (SAA 1, 2, 3) in the terminal ileum” value in assay [1] was “significantly decreases”. For the same molecule, in the assay with terminal ileum [2], the “ileal expression of Foxp3” value is on record as “lower” and the “ileal expression of RORγt” value is given as “lower”. Besides, in the assay with terminal ileum [2] (p<0.05), the “ileal expression of IFNγ [Th1]” value was “significantly lower”, the “ileal expression of IL-17A [Th17]” value is given as “significantly lower”, the “ileal expression of IL-17F [Th17]” value is “significantly lower” and the “ileal expression of T-bet [Th1]” value is on record as “significantly lower”. Moreover, the “reproducibly regulated genes out of ~45,000 genes of the mouse genome” value in the assay on terminal ileum [3] was found to be 3065.
